Laboratory results from US20090054414A1, “Rufinamide for the Treatment of Post-Traumatic Stress Disorder” (SYNOSIA THERAPEUTICS, priority 2007, published 2009).

What was measured:
[1] = system: male OF-1 “intruder” mice; assay: Intruder test (social withdrawal of intruder mice); assay type: in vivo, mouse
Description: Rufinamide, a Na-channel blocker and anti-epileptic agent, and carbamazepine, an anticonvulsant employed to treat bipolar disorder, were given to male OF-1 “intruder” in oral-doses of 1/3/10 mg/kg, 1 hr before the animals were confronted with an individually-housed, aggressive, male OF-1 resident mouse. […] This increase in social investigation (sociotropic effect) was accompanied by a decrease in the frequency and duration of defensive ambivalence probably through competitive inhibition. No signs of motor stimulation were detected.
The Intruder test duplicates a territorial encounter between a territory holder (aggressive male) and a subordinate “intruder” mouse. […] In this test the intruders receive the treatment whereas the residents remain untreated. (Dixon, A. K., Huber, C., Lowe, D. J. Clin. Psychiatry. 55 (9) Suppl B, 4-7 (1994)). For purposes of this study, rufinamide and carbamazepine were given orally to intruder mice 1 hr before being introduced singly to aggressive residents using doses of ⅓ and 10 mg/kg.
Over 60 ethological elements describing the social and non-social behaviour of mice based on the ethogram originally proposed by Grant and Mackintosh (Grant, E. C. Mackintosh, J. H. Behaviour 21: 246-259 (1963) ) and classified according to 9 behavioural categories (Dixon, A. K., Huber, C., Fisch, H. U. Adv. Study. Behaviour. 19: 171-204 (1990)) form the rodent ethogram as used in this test (FIG. 3).

[2] = system: male OF-1 mice; assay: half-enclosed platform (HEP) test; assay type: in vivo, mouse; details: 0.32/1/3.2 and 10 mg/kg p.o., 1 hr before testing
Description: Rufinamide and carbamazepine were compared in the half-enclosed platform (HEP) test. The test determines how drugs affect the exploratory behaviour of a mouse placed upon a novel, half-enclosed platform and gives information as to whether a drug is a stimulant, depressant or disinhibitory as with, for example the benzodiazepines which increase exploration of the platform. It is also useful for determining duration of action and dose-findings studies. The HEP is a further development of the simple elevated platform used by Kaesermann to assess anxiolytic properties of drugs (Ref. Käsermann H. P. (1986) Psychopharmacol. 89:31-37). In this study carbamazepine and rufinamide were tested in the same dose ranges i.e. 0.32/1/3.2 and 10 mg/kg p.o. of each were given to male OF-1 mice 1 hr before testing.
The ethogram used consists of 9 elements of exploratory behaviour two of which involve static postures i.e. immobility and stretched attend posture, the latter being an ambivalent element indicative of approach-avoidance conflict. These elements are immediately spontaneous and are not induced by either training or punishment procedures. Upright postures which are posturally demanding are useful to detect muscle relaxation e.g. rearing (FIG. 10).

[3] = system: Male Rj: Wistar (Han) rats; assay: Vogel Conflict Test in the rat; assay type: in vivo; details: for number of shocks received (punished drinking), change vs vehicle control: 60 minutes before the test
Description: Rufinamide was dispersed in 0.5% methylcellulose (MC) in distilled water. Vehicle was dispersed in 0.5% MC in distilled water. Clobazam was dispersed in 0.5% MC in distilled water. Methylcellulose (Sigma), batch n° 62K0144, white powder. Distilled water (Laboratoire Aguettant, sterile water for injectable preparation). All substances were stored in a dry, dark, controlled access area and maintained at a controlled ambient temperature (+18° C.). The vehicle suspensions were stored at +4° C.
The vehicle, test substance and reference substance were administered in a volume of 5 ml/kg body weight.
Male Rj: Wistar (Han) rats, 171-205 g body weight range were used. They were supplied by Elevage Janvier, 53940 Le Genest-Saint-Isle, France.
Animals were delivered to the laboratory at least 5 days before the experiment, during which time they were acclimatized to the laboratory conditions. They were housed in groups of 5 in macrolon cages (41×25×14 cm) on wood litter (Litalabo—SPPS, 95100 Argenteuil, France) with free access to food (Code 113-SAFE, 91360 Epinay-sur-Orge, France) and water until
Results in grouped data tables are presented as means followed by a ± sign and the standard error of the mean (s.e.m.) on the basis of 15 animals per group and as percent change from control. The statistical tests used are indicated with the method. All statistical calculations were performed using commercial software (Microsoft Excel®, GB Stat version 6.5), and verified test by test according to Porsolt & Partners Pharmacology's standardized internal procedures. All differences were considered statistically significant when the null hypothesis could be rejected at the risk α=0.05 or less.
Rats were deprived of water for 48 hours and were then placed individually into a transparent Plexiglas enclosure (15×32×34 cm) with a floor consisting of stainless steel bars (0.4 cm) spaced 1 cm apart. The back wall of the enclosure was made of opaque Plexiglass thereby concealing the observer from the experimental animal. In the centre of the opposite wall, 5 cm above the floor, a metal water spout protruded into the cage and was connected to one pole of a shock generator (Apelex: Type 011346). The other pole of the shock generator was connected to the metal grid floor.
The rat was left to explore until it found the water spout. Then, every time it drank, it received a slight electric shock (1.7 mA, 1 sec.) 2 seconds after it started lapping. The number of shocks received (punished drinkings) was counted during a 3 minute period.
15 rats were studied per group. The test was performed blind.
rufinamide was evaluated at 25, 50, 100 and 200 mg/kg, administered p.o. 60 minutes before the test, and compared with a vehicle control group.
Clobazam (64 mg/kg), administered under the same experimental conditions, was used as reference substance.
Data were analyzed by comparing treated groups with vehicle control using unpaired Student's t tests.

[4] = 1/3/10 mg/kg oral, 1 hr before encounter

## NC(=O)c1cn(Cc2c(F)cccc2F)nn1 [rufinamide, 1-(2,6-difluorobenzyl)-1H-1,2,3-triazole-4-carboxamide]
[1]; 1/3/10 mg/kg oral, 1 hr before 6 minute encounter
  non-social (NS) behaviour, frequency: significant, dose-related increase
[1]; 1/3/10 mg/kg oral, 1 hr before 6 minute encounter, frequency and duration
  social investigation (SI): increased, albeit in a bell-shaped manner with only changes at 3 mg/kg attaining significance
[1]; [4]
  duration of defensive ambivalence (DA), arrested flight (AF) and escape: significantly reduced but not uniformly
  frequencies of arrested flight and escape: only reduced significantly at 1 mg/kg
  time spent in non-social activities: only weakly following suit
  total number of ethological elements performed in the 6 minute encounter: increased in a dose-related manner
[1]; at 3 and 10 mg/kg oral, 1 hr before encounter
  time spent in static flight (SF) postures: significant shortening
[1]; oral
  dose which is sociotropic in the intruder test: 3 mg/kg
[2]
  changes in durations of exploratory and stationary elements: followed suit but rarely attained statistical significance
  duration of head raising in the open half: increased
  duration of inactivity (sta) in the enclosed half: shortened
  frequencies of stationary elements (Sta: sitting still, inactivity): decreased in a significant manner
[2]; dose-related
  exploratory elements stretched attend posture (sap), head raising (hu) and forward locomotion (go), frequency: significantly increased
[3]; 25 mg/kg p.o., 3 minute period, 15 rats
  number of shocks received (punished drinking), change vs vehicle control: +31%
[3]; 50 mg/kg p.o., p<0.05
  number of shocks received (punished drinking), change vs vehicle control: +40%
[3]; 100 mg/kg p.o.
  number of shocks received (punished drinking), change vs vehicle control: +55%
[3]; 200 mg/kg p.o.
  number of shocks received (punished drinking), change vs vehicle control: +83%
[3]; p.o.
  dose-range of anxiolytic-like activity: 25 to 200 mg/kg
[3]; p.o., p<0.05
  dose from which the increase in shocks received is significant: ≥ 50 mg/kg
